# Tested on: Mitochondria-located protein genes
# Test: DNA chip mRNA expression in yeast, mitochondria-located protein genes (Table 2)
# Format: cell-based, Saccharomyces cerevisiae S288C
# Conditions: cells incubated two hours with the chemical substance
# In short: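 Ratios compare mRNA levels in stressed and control S. cerevisiae. Each toxicant was applied for two hours to log-phase cultures at 25° C. at a sub-lethal, growth-inhibiting level; fluorescent cDNA (Cy3- or Cy5-dUTP) was hybridized to a genome-wide yeast chip for over 12 h at 65° C.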
structure (smiles),measurement,setting,value
"[Cl][Cd][Cl] [(2), CdCl2]",The level of expressed mRNA in the presence of chemical substance/The level of expressed mRNA in the absence of chemical substance,yeast gene YJR121W,1.1
same,The level of expressed mRNA in the presence of chemical substance/The level of expressed mRNA in the absence of chemical substance,yeast gene YKL003C,0.7
same,The level of expressed mRNA in the presence of chemical substance/The level of expressed mRNA in the absence of chemical substance,yeast gene YKL016C,1.3
same,The level of expressed mRNA in the presence of chemical substance/The level of expressed mRNA in the absence of chemical substance,yeast gene YKL141W,1.1
same,The level of expressed mRNA in the presence of chemical substance/The level of expressed mRNA in the absence of chemical substance,yeast gene YKL142W,2.7
same,The level of expressed mRNA in the presence of chemical substance/The level of expressed mRNA in the absence of chemical substance,yeast gene YKL148C,0.8
same,The level of expressed mRNA in the presence of chemical substance/The level of expressed mRNA in the absence of chemical substance,yeast gene YKL170W,0.8
same,The level of expressed mRNA in the presence of chemical substance/The level of expressed mRNA in the absence of chemical substance,yeast gene YKL194C,0.7
same,The level of expressed mRNA in the presence of chemical substance/The level of expressed mRNA in the absence of chemical substance,yeast gene YKR066C,1.4
same,The level of expressed mRNA in the presence of chemical substance/The level of expressed mRNA in the absence of chemical substance,yeast gene YLL041C,0.5
same,The level of expressed mRNA in the presence of chemical substance/The level of expressed mRNA in the absence of chemical substance,yeast gene YLR038C,1.1
same,The level of expressed mRNA in the presence of chemical substance/The level of expressed mRNA in the absence of chemical substance,yeast gene YLR259C,1.0
same,The level of expressed mRNA in the presence of chemical substance/The level of expressed mRNA in the absence of chemical substance,yeast gene YLR295C,1.1
same,The level of expressed mRNA in the presence of chemical substance/The level of expressed mRNA in the absence of chemical substance,yeast gene YLR304C,0.6
same,The level of expressed mRNA in the presence of chemical substance/The level of expressed mRNA in the absence of chemical substance,yeast gene YLR348C,4.5
same,The level of expressed mRNA in the presence of chemical substance/The level of expressed mRNA in the absence of chemical substance,yeast gene YLR395C,1.3
same,The level of expressed mRNA in the presence of chemical substance/The level of expressed mRNA in the absence of chemical substance,yeast gene YML054C,1.8
same,The level of expressed mRNA in the presence of chemical substance/The level of expressed mRNA in the absence of chemical substance,yeast gene YML120C,1.2
same,The level of expressed mRNA in the presence of chemical substance/The level of expressed mRNA in the absence of chemical substance,yeast gene YML129C,0.9
same,The level of expressed mRNA in the presence of chemical substance/The level of expressed mRNA in the absence of chemical substance,yeast gene YMR023C,1.3
same,The level of expressed mRNA in the presence of chemical substance/The level of expressed mRNA in the absence of chemical substance,yeast gene YMR035W,1.7
same,The level of expressed mRNA in the presence of chemical substance/The level of expressed mRNA in the absence of chemical substance,yeast gene YMR083W,1.7
same,The level of expressed mRNA in the presence of chemical substance/The level of expressed mRNA in the absence of chemical substance,yeast gene YMR089C,1.1
same,The level of expressed mRNA in the presence of chemical substance/The level of expressed mRNA in the absence of chemical substance,yeast gene YMR152W,1.1
same,The level of expressed mRNA in the presence of chemical substance/The level of expressed mRNA in the absence of chemical substance,yeast gene YMR203W,0.7
same,The level of expressed mRNA in the presence of chemical substance/The level of expressed mRNA in the absence of chemical substance,yeast gene YMR267W,1.8
same,The level of expressed mRNA in the presence of chemical substance/The level of expressed mRNA in the absence of chemical substance,yeast gene YNL055C,1.8
same,The level of expressed mRNA in the presence of chemical substance/The level of expressed mRNA in the absence of chemical substance,yeast gene YNL071W,0.9
same,The level of expressed mRNA in the presence of chemical substance/The level of expressed mRNA in the absence of chemical substance,yeast gene YNL073W,1.4
same,The level of expressed mRNA in the presence of chemical substance/The level of expressed mRNA in the absence of chemical substance,yeast gene YNL104C,1.3
same,The level of expressed mRNA in the presence of chemical substance/The level of expressed mRNA in the absence of chemical substance,yeast gene YNL256W,1.6
same,The level of expressed mRNA in the presence of chemical substance/The level of expressed mRNA in the absence of chemical substance,yeast gene YOL096C,1.0
same,The level of expressed mRNA in the presence of chemical substance/The level of expressed mRNA in the absence of chemical substance,yeast gene YOR020C,2.1
same,The level of expressed mRNA in the presence of chemical substance/The level of expressed mRNA in the absence of chemical substance,yeast gene YOR037W,1.5
same,The level of expressed mRNA in the presence of chemical substance/The level of expressed mRNA in the absence of chemical substance,yeast gene YOR100C,1.4
same,The level of expressed mRNA in the presence of chemical substance/The level of expressed mRNA in the absence of chemical substance,yeast gene YOR130C,1.7
same,The level of expressed mRNA in the presence of chemical substance/The level of expressed mRNA in the absence of chemical substance,yeast gene YOR142W,1.2
same,The level of expressed mRNA in the presence of chemical substance/The level of expressed mRNA in the absence of chemical substance,yeast gene YOR150W,1.2
same,The level of expressed mRNA in the presence of chemical substance/The level of expressed mRNA in the absence of chemical substance,yeast gene YOR176W,2.6
same,The level of expressed mRNA in the presence of chemical substance/The level of expressed mRNA in the absence of chemical substance,yeast gene YOR187W,0.5
same,The level of expressed mRNA in the presence of chemical substance/The level of expressed mRNA in the absence of chemical substance,yeast gene YOR316C,2.5
same,The level of expressed mRNA in the presence of chemical substance/The level of expressed mRNA in the absence of chemical substance,yeast gene YPL040C,1.0
same,The level of expressed mRNA in the presence of chemical substance/The level of expressed mRNA in the absence of chemical substance,yeast gene YPL134C,1.0
same,The level of expressed mRNA in the presence of chemical substance/The level of expressed mRNA in the absence of chemical substance,yeast gene YPL135W,1.2
same,The level of expressed mRNA in the presence of chemical substance/The level of expressed mRNA in the absence of chemical substance,yeast gene YPL215W,1.9
same,The level of expressed mRNA in the presence of chemical substance/The level of expressed mRNA in the absence of chemical substance,yeast gene YPL262W,1.7
same,The level of expressed mRNA in the presence of chemical substance/The level of expressed mRNA in the absence of chemical substance,yeast gene YPR024W,1.0
same,The level of expressed mRNA in the presence of chemical substance/The level of expressed mRNA in the absence of chemical substance,yeast gene YPR037C,2.3
same,The level of expressed mRNA in the presence of chemical substance/The level of expressed mRNA in the absence of chemical substance,yeast gene YPR047W,1.0
same,The level of expressed mRNA in the presence of chemical substance/The level of expressed mRNA in the absence of chemical substance,yeast gene YPR134W,1.1
